Results from ChEMBL document CHEMBL6109088 (J Med Chem, 2025).

Key:
in vivo [1] = settings: male, Wistar Hannover, rat, po, 10 mg/kg
in vivo [2] = settings: male, cynomolgus monkey, iv, 1 mg/kg
in vivo [3] = settings: male, Wistar Hannover, rat, iv, 1 mg/kg
in vivo [4] = settings: male, Wistar Hannover, rat, po, 10 mg/kg; remark: listed apart in the source
in vivo [5] = settings: male, Wistar Hannover, rat, po, 10 mg/kg; remark: listed apart in the source
in vivo [6] = settings: male, Wistar Hannover, rat, iv, 1 mg/kg; remark: listed apart in the source
in vivo [7] = settings: male, cynomolgus monkey, po, 100 mg/kg
in vivo [8] = settings: male, Wistar Hannover, rat, po, 100 mg/kg
in vivo [9] = settings: male, Wistar Hannover, rat, po, 10 mg/kg; remark: listed apart in the source
in vivo [10] = settings: male, cynomolgus monkey, po, 100 mg/kg; remark: listed apart in the source
in vivo [11] = settings: male, Wistar Hannover, rat, po, 100 mg/kg; remark: listed apart in the source
in vivo [12] = settings: male, cynomolgus monkey, plasma, iv, 1 mg/kg
in vivo [13] = settings: male, cynomolgus monkey, po, 100 mg/kg; remark: listed apart in the source
in vitro [14] = settings: human, liver microsomes
in vivo [15] = settings: male, Wistar Hannover, rat, po, 100 mg/kg; remark: listed apart in the source
in vivo [16] = settings: male, Wistar Hannover, rat, po, 10 mg/kg; remark: listed apart in the source
in vivo [17] = settings: male, cynomolgus monkey, po, 100 mg/kg; remark: listed apart in the source
in vivo [18] = settings: male, cynomolgus monkey, po, 100 mg/kg; remark: listed apart in the source
in vivo [19] = settings: male, cynomolgus monkey, iv, 1 mg/kg; remark: listed apart in the source
in vitro [20] = settings: dog, MDCK
in vivo [21] = settings: male, Wistar Hannover, rat, po, 10 mg/kg; remark: listed apart in the source
in vivo [22] = settings: male, Wistar Hannover, rat, po, 100 mg/kg; remark: listed apart in the source
in vivo [23] = settings: male, cynomolgus monkey, po, 10 mg/kg
in vivo [24] = settings: male, Wistar Hannover, rat, po, 10 mg/kg; remark: listed apart in the source
in vivo [25] = settings: male, cynomolgus monkey, po, 100 mg/kg; remark: listed apart in the source
in vivo [26] = settings: male, cynomolgus monkey, iv, 1 mg/kg; remark: listed apart in the source
in vivo [27] = settings: male, cynomolgus monkey, po, 10 mg/kg; remark: listed apart in the source
in vivo [28] = settings: male, Wistar Hannover, rat, po, 100 mg/kg; remark: listed apart in the source
in vivo [29] = settings: male, Wistar Hannover, rat, po, 10 mg/kg; remark: listed apart in the source
in vivo [30] = settings: male, Wistar Hannover, rat, po, 100 mg/kg; remark: listed apart in the source
in vivo [31] = settings: male, Wistar Hannover, rat, plasma, iv, 1 mg/kg
in vivo [32] = settings: male, cynomolgus monkey, po, 10 mg/kg; remark: listed apart in the source
in vivo [33] = settings: rat, po
SARS-CoV-2 = assay: microbe, parasite or virus in culture; settings: Severe acute respiratory syndrome coronavirus 2, USA-WA1/2020, Vero C1008
physchem = settings: octanol/water

`CC(C)(C)[C@H](NC(=O)C(F)(F)F)C(=O)N1C[C@H]2[C@@H]([C@H]1C(=O)N[C@H](C#N)C[C@@H]1CCNC1=O)C2(C)C` showed a bioavailability at 4 h (in vivo [1]) of 50%, an AUC(0-inf) (in vivo [2]) of 977 ng·h/mL and a half-life at 4 h (in vivo [3]) of 5.1 h. It also gave an AUC(0-inf) at 4 h (in vivo [4]) of 2170 ng·h/mL, an AUC(0-inf) at 4 h (in vivo [5]) of 3190 ng·h/mL and a Vd at 4 h (in vivo [6]) of 1.8 L/kg. For the same molecule, the AUC(0-inf) (in vivo [7]) was 37200 ng·h/mL, the bioavailability at 4 h (in vivo [8]) was 29% and the half-life at 4 h (in vivo [9]) was 4 h. It also gave a Cmax (in vivo [10]) of 1560 ng/mL, an AUC(0-inf) at 4 h (in vivo [11]) of 68300 ng·h/mL and a clearance (in vivo [12]) of 17.1 mL/min/kg. It also gave a Tmax (in vivo [13]) of 1 h, a microsomal CLint (in vitro [14]) of 24.5 µL/min/mg and a Tmax at 4 h (in vivo [15]) of 0.75 h. The Cmax at 4 h (in vivo [16]) was 1450 ng/mL, the Tmax (in vivo [17]) was 0.5 h and the AUC(0-inf) (in vivo [18]) was 4400 ng·h/mL. For the same molecule, the Vd (in vivo [19]) was 0.33 L/kg, the Papp A→B (in vitro [20]) was 1.71 ×10⁻⁶ cm/s and the Cmax at 4 h (in vivo [21]) was 1290 ng/mL. It also gave a Tmax at 4 h (in vivo [22]) of 1.4 h, a Cmax (in vivo [23]) of 1450 ng/mL and a half-life at 4 h (in vivo [24]) of 2.8 h. For the same molecule, the Cmax (in vivo [25]) was 16300 ng/mL, the half-life (in vivo [26]) was 0.79 h and the bioavailability (in vivo [27]) was 8.5%. The bioavailability at 4 h (in vivo [28]) was 108%, the Tmax at 4 h (in vivo [29]) was 1.5 h and the AUC(0-inf) at 4 h (in vivo [30]) was 18000 ng·h/mL. For the same molecule, the clearance at 4 h (in vivo [31]) was 27.2 mL/min/kg and the AUC(0-t) (in vivo [32]) was 831 ng·h/mL.

For `CNC(=O)N[C@H](C(=O)N1C[C@H]2[C@@H]([C@H]1C(=O)N[C@H](C#N)C[C@@H]1CCNC1=O)C2(C)C)C(C)(C)C`, the microsomal CLint (in vitro [14]) was under 7.12 µL/min/mg and the Papp A→B (in vitro [20]) was 0.62 ×10⁻⁶ cm/s.

`CC(C)[C@H](NC(=O)C(F)(F)F)C(=O)N1C[C@H]2[C@@H]([C@H]1C(=O)N[C@H](C#N)C[C@@H]1CCNC1=O)C2(C)C` showed a microsomal CLint (in vitro [14]) of 7.9 µL/min/mg, a Papp A→B (in vitro [20]) of 0.721 ×10⁻⁶ cm/s and a bioavailability (in vivo [33]) of 20%. For the same molecule, the EC50 (SARS-CoV-2) was 0.229 µM.

`COC(=O)N[C@H](C(=O)N1C[C@H]2[C@@H]([C@H]1C(=O)N[C@H](C#N)C[C@@H]1CCNC1=O)C2(C)C)C(C)(C)C` showed a microsomal CLint (in vitro [14]) of 8.1 µL/min/mg, a Papp A→B (in vitro [20]) of 0.61 ×10⁻⁶ cm/s and a bioavailability (in vivo [33]) of 21%.

In the case of `CC(=O)N[C@H](C(=O)N1C[C@H]2[C@@H]([C@H]1C(=O)N[C@H](C#N)C[C@@H]1CCNC1=O)C2(C)C)C(C)(C)C`, the microsomal CLint (in vitro [14]) is reported as under 7 µL/min/mg, the Papp A→B (in vitro [20]) is reported as under 0.302 ×10⁻⁶ cm/s and the bioavailability (in vivo [33]) is reported as 2.8%. For the same molecule, the EC50 (SARS-CoV-2) was 5.31 µM.

Molecule `COc1cccc2[nH]c(C(=O)N[C@@H](CC(C)C)C(=O)N[C@H](C#N)C[C@@H]3CCNC3=O)cc12` has a Papp A→B (in vitro [20]) of 0.945 ×10⁻⁶ cm/s and a bioavailability (in vivo [33]) of 7%.

For `CC(C)(C)[C@H](NC(=O)C(F)(F)F)C(=O)N1C[C@H]2[C@@H]([C@H]1C(=O)N[C@@H](C[C@@H]1CCNC1=O)C(=O)CO)C2(C)C`, the microsomal CLint (in vitro [14]) was under 7 µL/min/mg, the Papp A→B (in vitro [20]) was under 0.481 ×10⁻⁶ cm/s and the EC50 (SARS-CoV-2) was under 0.331 µM.

`CC(C)(C)[C@H](NS(=O)(=O)C(F)(F)F)C(=O)N1C[C@H]2[C@@H]([C@H]1C(=O)N[C@H](C#N)C[C@@H]1CCNC1=O)C2(C)C` gave a microsomal CLint (in vitro [14]) of under 7.47 µL/min/mg, a Papp A→B (in vitro [20]) of 0.7 ×10⁻⁶ cm/s and an EC50 (SARS-CoV-2) of 0.179 µM.

For `COc1cccc2[nH]c(C(=O)N3C[C@H]4[C@@H]([C@H]3C(=O)N[C@@H](C[C@@H]3CCNC3=O)C(=O)c3nc5ccccc5s3)C4(C)C)cc12`, the microsomal CLint (in vitro [14]) was 337 µL/min/mg, the Papp A→B (in vitro [20]) was 7.3 ×10⁻⁶ cm/s and the EC50 (SARS-CoV-2) was 5.59 µM. It also gave a logD (physchem) of 4.2.

Work on `CC(=O)N[C@H](C(=O)N1C[C@H]2[C@@H]([C@H]1C(=O)N[C@@H](C[C@@H]1CCNC1=O)C(=O)c1nc3ccccc3s1)C2(C)C)C(C)(C)C` yielded a microsomal CLint (in vitro [14]) of 27 µL/min/mg, a Papp A→B (in vitro [20]) of 0.7 ×10⁻⁶ cm/s and an EC50 (SARS-CoV-2) of 0.702 µM. It also gave a logD (physchem) of 2.4.

Molecule `COCC(=O)[C@H](C[C@@H]1CCNC1=O)NC(=O)[C@@H]1[C@@H]2[C@H](CN1C(=O)[C@@H](NC(=O)C(F)(F)F)C(C)(C)C)C2(C)C` has a microsomal CLint (in vitro [14]) of 11.8 µL/min/mg, a Papp A→B (in vitro [20]) of 0.499 ×10⁻⁶ cm/s and an EC50 (SARS-CoV-2) of 0.134 µM.
